# From US5877210A, “Phosphotyrosine phosphatase inhibitors or phosphotyrosine kinase activators for controlling cellular proliferation” (priority 1995, dated 1999)
# “And” between values parts separate entries of the source, which are not always exact repeats. Equal entries are not always repeated.
# Key:
# REH = assay: Clonogenic assay in methylcellulose; format: cell-based; conditions: for colonies formed: seven days
# Method: The selective cytotoxicity of BMLOV was examined in clonogenic assays. Cells were grown in methylcellulose media and the number of colonies formed after seven days of treatment with various doses of the drug were determined. The clonogenic assays were performed with six replicates for each treatment as described [F. M. Uckun et al., J. Exp. Med. 163:347-368 (1986); F. M. Uckun & J. A. Ledbetter, Proc. Natl. Acad. Sci. USA 85:8603-8607 (1988)). The data is given plus/minus the standard error of the mean.
# For assays of cellular proliferation, cells were grown five days in the presence of the indicated concentrations of BMLOV, pulsed 6 hr with [^3 H]-thymidine (New England Nuclear, Boston, Mass.), and counted in a liquid scintillation counter. Human peripheral blood lymphocytes (PBL) from normal volunteers were isolated from lymphocyte separation medium (Litton Bionetics, Kensington, Md.) by density gradient centrifugation. Monocytes were depleted from PBL by two rounds of plastic absorption for 30 minutes at 37° C. B cells were enriched for by negative selection using complement plus monoclonal antibodies to CD2, CD3, CD4, and CD8 for complement depletion. Clonogenic assays of colony formation in methylcellulose medium were performed as previously described (F. M. Uckun et al. (1992), supra).
# Ramos B cells [1] = assay: Confocal laser scanning microscopy; format: cell-based, human; conditions: 25 μm BMLOV, 48 h
# Method: Cells were fixed with 3.7% formaldehyde in PBS and permeabilized by treatment with 0.1% saponin. […] The cells were then washed three times in staining buffer, and stained with fluorescein-labeled goat anti-rabbit antibody (Molecular Probes). After washing three times in staining buffer, cells were stained for DNA with 2 μg/ml propidium iodide. A Leica GmbH confocal laser scanning microscope (CLSM) (Leica Laser Technic, Heidelberg, Germany) equipped with a krypton/argon laser (Omnichrome, Chino, Calif.), 2 double dichroic beam splitters with λs1 /λs2 of 488/647 and 488/568 nm, 1 neutral density beam splitter (Lys Optics, Denmark), the Leica CLSM software accessories, and the Leica true color display graphics package was used to produce the confocal images.
# In addition to DNA fragmentation, apoptotic lymphocytes display condensation of chromatin, loss of DNA and fragmentation of nuclei that can be detected by confocal laser scanning microscopy (CLSM) of propidium iodide stained cells (R. Sgonc & G. Wick, Int. Arch. Allergy Immunol. 105:327-332 (1994)). Therefore, CLSM was used to examine Ramos cells stained for DNA with propidium iodide and stained for phosphotyrosine (FIG. 29). In the experiments shown in FIG. 29, Ramos B cells were fixed, permeabilized and stained with propidium iodide for DNA (red) and with anti-phosphotyrosine antibodies (green) as described above. […]
# Ramos B cells [2] = format: cell-based, human
# From the text: These effects were synergistic rather than additive in that an approximately 5-fold enhancement in sensitization for the combination treatment was observed relative to expected additive effects based on the use of either treatment alone.
# [3] = system: normal peripheral blood T cells
# Method: IL-2Rα expression was analyzed by flow cytometry after staining the cells with fluorescein-labeled anti-CD25. Cells not receiving any treatment are shown by the shaded profile, (- - -) 25 μM BMLOV only; (-) G19-4 only; (. . . ) G19-4 plus BMLOV. In Panel A, no IL-2 was added; in Panel B, incubations were performed with 1 ng/ml IL-2.
# [4] = Tolerability of BMLOV in mice; format: in vivo
# [5] = system: peripheral blood lymphocytes; assay: Leukocyte counts in mice after pV(phen); format: in vivo, BALB/C mice; conditions: one dose i.p.; for Absolute Counts: Eosinophil / Absolute Counts: Lymphocyte / Absolute Counts: Monocyte / Absolute Counts: Neutrophil: blood 24 hr later, individual animals
# From the text: BALB/C mice received one dose of pV(phen) i.p. and their blood was examined 24 hr later.
# P388D = assay: [3H]thymidine incorporation assay; format: cell-based, murine; conditions: 5 days
# Method: (§1) The cell lines A20, 70Z-3, L1210, and P388D were used. A20 is a B cell lymphoma cell line; 70Z/3 is a B cell leukemia cell line; L1210 is a T cell leukemia cell line; and P388D is a myeloid leukemia cell line. The cells were grown for 5 days in the presence of pV(phen) and pulsed with [^3 H]-thymidine on day 5. The extent of DNA synthesis was then determined by counting the radioactivity incorporated into the cells, as in Example 5, supra. […] The effects on L1210 cells and P388D cells are particularly noteworthy because these cell lines have been extensively used by the National Cancer Institute to identify anti-cancer drugs.
# L1210 = assay: [3H]thymidine incorporation assay; format: cell-based, murine; conditions: 5 days
# Method: as §1
# [6] = system: 70Z/3 B cell leukemia cell line; assay: [3H]thymidine incorporation assay; format: cell-based, murine; conditions: 702/3, 5 days
# Method: as §1
# [7] = peripheral blood t cells, 24 h, 25 µM
smiles,measurement,setting,value
"Cc1occc(=O)c1[O-].Cc1occc(=O)c1[O-].[O]=[V+2] [BMLOV, Bis(maltolato)oxovanadium (IV)]",percentage of inhibition of clonogenic growth,REH; 1 μM BMLOV,64.7%
same,colonies formed,REH; 1 μM BMLOV,1810 ± 385 colonies per 10^4 cells
same,percentage of inhibition of clonogenic growth,REH; 5 μM BMLOV,98.6%
same,colonies formed,REH; 5 μM BMLOV,71 ± 8 colonies per 10^4 cells
same,percentage of inhibition of clonogenic growth,REH; 10 μM BMLOV,99.8%
same,colonies formed,REH; 10 μM BMLOV,8 ± 1 colonies per 10^4 cells
same,nuclear morphology by CLSM,Ramos B cells [1],"extensive loss of DNA, condensation of chromatin"
same,enhancement in sensitization relative to expected additive effects,Ramos B cells [2]; combination of BMLOV and radiation,approximately 5 fold
same,increase in cell death relative to radiation alone,"Ramos B cells [2]; ramos b cells, 1 µM",10 fold
same,increase in clonogenic cell death relative to radiation alone,"Ramos B cells [2]; ramos b cells, 2 µM",50 fold
same,IL-2Rα expression without anti-CD3 stimulation,[3]; BMLOV alone or in combination with IL-2,did not induce IL-2Rα expression
same,enhancement of IL-2Rα expression over anti-CD3 and IL-2,[3]; [7],3 fold
same,increase of IL-2Rα expression over anti-CD3 stimulation alone,[3]; [7],1.7 fold
same,tolerability,[4]; 1.6 mM BMLOV in drinking water continuously for 10 days,no overt ill effects
same,tolerability,[4]; intraperitoneal doses up to 1 mg and oral doses up to 1.6 mg,without ill effects except for some temporary lethargy
"[Na+].[O]=[V-]12([O][O]1)[O][O]2.c1cnc2c(c1)ccc1cccnc12 [pV(phen), sodium (1,10-phenanthroline) oxodiperoxovanadium (V)]",Absolute Counts: Eosinophil,[5]; Dose 1 μM,244 and 26
same,Absolute Counts: Lymphocyte,[5]; Dose 1 μM,3848 and 1612
same,Absolute Counts: Monocyte,[5]; Dose 1 μM,488 and 104
same,Absolute Counts: Neutrophil,[5]; Dose 1 μM,1525 and 858
same,Absolute Counts: Eosinophil,[5]; Dose 2 μM,78 and 81
same,Absolute Counts: Lymphocyte,[5]; Dose 2 μM,1560 and 2511
same,Absolute Counts: Monocyte,[5]; Dose 2 μM,390 and 0
same,Absolute Counts: Neutrophil,[5]; Dose 2 μM,1872 and 5508
same,"effect on monocytes, in words",[5]; 24 hr,no consistent effect was observed
same,"number of neutrophils, in words",[5]; 24 hr,substantially increased
same,"number of peripheral blood lymphocytes, in words",[5]; 24 hr,markedly reduced
same,[3H]-thymidine radioactivity incorporated,P388D; 5 μM pV(phen),2513 ± 1424
same,[3H]-thymidine radioactivity incorporated,P388D; 10 μM pV(phen),362 ± 60
same,[3H]-thymidine radioactivity incorporated,L1210; 5 μM pV(phen),244 ± 155
same,[3H]-thymidine radioactivity incorporated,L1210; 10 μM pV(phen),464 ± 116
same,[3H]-thymidine radioactivity incorporated,[6]; 5 μM pV(phen),53 ± 27
same,[3H]-thymidine radioactivity incorporated,[6]; 10 μM pV(phen),49 ± 34
